Measurements taken from US20070093969A1, “Molecular nephrotoxicology modeling” (priority 2002, published 2007).

Key:
kidney tissue = conditions: in vivo; cited from earlier work
[1] = system: kidney tissue gene expression; conditions: rat, in vivo

O=C(O)Cc1ccccc1Nc1c(Cl)cccc1Cl [diclofenac, Diclofenac]
levels of BUN, malondialdehyde (MDA), SOD, and activated Ca2+-Mg2+-endonuclease (kidney tissue): elevated | Tox Group Mean, GLGC Identifier 67 [1]: 1551.30 | Tox Group Mean, GLGC Identifier 665 [1]: 849.30 | Tox Group Mean, GLGC Identifier 725 [1]: 33.60 | Tox Group Mean, GLGC Identifier 1422 [1]: 174.39 | Tox Group Mean, GLGC Identifier 1527 [1]: 51.23 | Tox Group Mean, GLGC Identifier 1529 [1]: 194.31 | Tox Group Mean, GLGC Identifier 1698 [1]: 190.91 | Tox Group Mean, GLGC Identifier 1729 [1]: 81.89 | Tox Group Mean, GLGC Identifier 1847 [1]: 22.26 | Tox Group Mean, GLGC Identifier 1858 [1]: 253.42 | Tox Group Mean, GLGC Identifier 1888 [1]: 101.45 | Tox Group Mean, GLGC Identifier 1894 [1]: 294.35 | Tox Group Mean, GLGC Identifier 2128 [1]: 97.35 | Tox Group Mean, GLGC Identifier 3172 [1]: 36.28 | Tox Group Mean, GLGC Identifier 3439 [1]: 135.79 | Tox Group Mean, GLGC Identifier 3465 [1]: 152.39 | Tox Group Mean, GLGC Identifier 4449 [1]: 156.15 | Tox Group Mean, GLGC Identifier 4661 [1]: 555.94 | Tox Group Mean, GLGC Identifier 5461 [1]: 694.84 | Tox Group Mean, GLGC Identifier 5920 [1]: 1412.80 | Tox Group Mean, GLGC Identifier 5930 [1]: 73.85 | Tox Group Mean, GLGC Identifier 6014 [1]: 183.73 | Tox Group Mean, GLGC Identifier 6046 [1]: 83.37 | Tox Group Mean, GLGC Identifier 6278 [1]: 58.48 | Tox Group Mean, GLGC Identifier 6758 [1]: 59.84 | Tox Group Mean, GLGC Identifier 6782 [1]: 310.65 | Tox Group Mean, GLGC Identifier 6796 [1]: 304.75 | Tox Group Mean, GLGC Identifier 6917 [1]: 111.53 | Tox Group Mean, GLGC Identifier 7299 [1]: 595.57 | Tox Group Mean, GLGC Identifier 7540 [1]: 504.78 | Tox Group Mean, GLGC Identifier 7872 [1]: 63.92 | Tox Group Mean, GLGC Identifier 7936 [1]: 82.66 | Tox Group Mean, GLGC Identifier 7937 [1]: 34.46 | Tox Group Mean, GLGC Identifier 8065 [1]: 236.57 | Tox Group Mean, GLGC Identifier 8099 [1]: 72.23 | Tox Group Mean, GLGC Identifier 8104 [1]: 85.37 | Tox Group Mean, GLGC Identifier 8234 [1]: 22.24 | Tox Group Mean, GLGC Identifier 8759 [1]: 237.31 | Tox Group Mean, GLGC Identifier 8820 [1]: 743.55 | Tox Group Mean, GLGC Identifier 8850 [1]: 175.34 | Tox Group Mean, GLGC Identifier 8888 [1]: 22.26 | Tox Group Mean, GLGC Identifier 9079 [1]: 1099.28 | Tox Group Mean, GLGC Identifier 9520 [1]: 69.60 | Tox Group Mean, GLGC Identifier 10434 [1]: 77.07 | Tox Group Mean, GLGC Identifier 11434 [1]: 181.39 | Tox Group Mean, GLGC Identifier 11755 [1]: 343.83 | Tox Group Mean, GLGC Identifier 12979 [1]: 742.50 | Tox Group Mean, GLGC Identifier 13013 [1]: 32.49 | Tox Group Mean, GLGC Identifier 13485 [1]: 38.32 | Tox Group Mean, GLGC Identifier 13542 [1]: 321.75 | Tox Group Mean, GLGC Identifier 13614 [1]: 497.29 | Tox Group Mean, GLGC Identifier 13966 [1]: 227.19 | Tox Group Mean, GLGC Identifier 14003 [1]: 1575.92 | Tox Group Mean, GLGC Identifier 14346 [1]: 174.62 | Tox Group Mean, GLGC Identifier 14450 [1]: 45.80 | Tox Group Mean, GLGC Identifier 15017 [1]: 2241.27 | Tox Group Mean, GLGC Identifier 15035 [1]: 23.84 | Tox Group Mean, GLGC Identifier 15124 [1]: 1897.22 | Tox Group Mean, GLGC Identifier 15125 [1]: 3102.06 | Tox Group Mean, GLGC Identifier 15379 [1]: 33.32 | Tox Group Mean, GLGC Identifier 15411 [1]: 552.53 | Tox Group Mean, GLGC Identifier 15679 [1]: 309.12 | Tox Group Mean, GLGC Identifier 15761 [1]: 22.22 | Tox Group Mean, GLGC Identifier 15964 [1]: 487.88 | Tox Group Mean, GLGC Identifier 16520 [1]: 174.46 | Tox Group Mean, GLGC Identifier 16521 [1]: 453.74 | Tox Group Mean, GLGC Identifier 16681 [1]: 134.46 | Tox Group Mean, GLGC Identifier 16982 [1]: 1036.49 | Tox Group Mean, GLGC Identifier 17541 [1]: 1839.84 | Tox Group Mean, GLGC Identifier 18246 [1]: 100.99 | Tox Group Mean, GLGC Identifier 19067 [1]: 76.83 | Tox Group Mean, GLGC Identifier 20000 [1]: 24.08 | Tox Group Mean, GLGC Identifier 20457 [1]: 235.87 | Tox Group Mean, GLGC Identifier 20523 [1]: 1004.68 | Tox Group Mean, GLGC Identifier 20864 [1]: 3112.64 | Tox Group Mean, GLGC Identifier 21012 [1]: 445.05 | Tox Group Mean, GLGC Identifier 21014 [1]: 352.43 | Tox Group Mean, GLGC Identifier 21145 [1]: 76.23 | Tox Group Mean, GLGC Identifier 21354 [1]: 640.85 | Tox Group Mean, GLGC Identifier 21491 [1]: 67.51 | Tox Group Mean, GLGC Identifier 22311 [1]: 1255.02 | Tox Group Mean, GLGC Identifier 22321 [1]: 138.89 | Tox Group Mean, GLGC Identifier 23987 [1]: 596.80 | Tox Group Mean, GLGC Identifier 24232 [1]: 48.69 | Tox Group Mean, GLGC Identifier 24566 [1]: 32.95 | Tox Group Mean, GLGC Identifier 24568 [1]: 78.30 | Tox Group Mean, GLGC Identifier 24893 [1]: 20.58 | Tox Group Mean, GLGC Identifier 25106 [1]: 28.05 | Tox Group Mean, GLGC Identifier 26083 [1]: 403.60
